Literature values as cited in patent US5723589A, “Carbohydrate conjugated bio-active compounds” (ICN Pharmaceuticals, priority 1995, dated 1998).

Columns and labels:
[1] = system: blood brain barrier; settings: concentrated solutions infused into the carotid arteries; cited from earlier work
[2] = system: GLUT-1 in cancer cells; settings: inhibition of GLUT-1 functioning by binding; cited from earlier work
[3] = system: GLUT-1 in normal 3T3 fibroblasts; settings: Endocrinology 1990, 126, 2778; cited from earlier work

Compound: OC[C@@H](O)[C@@H](O)[C@H](O)[C@H](O)CO [mannitol]
- disruption of the blood brain barrier [1]: disrupt the blood brain barrier long enough to allow methotrexate and other potent chemotherapeutic agents to penetrate brain tumors

Compound: Cc1ccc(C(=O)Nc2ccc(S(=O)(=O)O)c3cc(S(=O)(=O)O)cc(S(=O)(=O)O)c23)cc1NC(=O)c1cccc(NC(=O)Nc2cccc(C(=O)Nc3cc(C(=O)Nc4ccc(S(=O)(=O)O)c5cc(S(=O)(=O)O)cc(S(=O)(=O)O)c45)ccc3C)c2)c1 [suramin]
- glucose uptake and growth rate of the treated cells [2]: significantly limits glucose uptake and the growth rate of the treated cells

Compound: Sodium vanadate
- GLUT-1 expression [3]: able to induce GLUT-1 expression
- extension of the half-life of GLUT-1 mRNA [3]: 2-3 times
